Results from ChEMBL document CHEMBL3045685, “Discovery of bis-aromatic ring neonicotinoid analogues fixed as cis-configuration: Synthesis, insecticidal activities, and molecular docking studies” (2010).

Columns and labels:
Assay type in all cases: functional
Nilaparvata lugens [1] = test: In vivo insecticidal activity against fifth-instar larval stage of Nilaparvata lugens (brown planthopper) in second semester rice seedlings assessed as insect mortality at 10 mg/L treated for 5 secs before larval infestation measured after 72 hr
Nilaparvata lugens [2] = test: In vivo insecticidal activity against fifth-instar larval stage of Nilaparvata lugens (brown planthopper) in second semester rice seedlings assessed as insect mortality at 500 mg/L treated for 5 secs before larval infestation measured after 72 hr
Nilaparvata lugens [3] = test: In vivo insecticidal activity against fifth-instar larval stage of Nilaparvata lugens (brown planthopper) in second semester rice seedlings assessed as insect mortality at 100 mg/L treated for 5 secs before larval infestation measured after 72 hr

| SMILES | mortality at 10 µg/mL (Nilaparvata lugens [1]) [%] | mortality at 500 µg/mL (Nilaparvata lugens [2]) [%] | mortality at 100 µg/mL (Nilaparvata lugens [3]) [%] |
| --- | --- | --- | --- |
| CCN(Cc1ccc(Cl)nc1)C1=C([N+](=O)[O-])CN(c2ccc(F)cc2)CN1C | ≥ 80 | 100 | 100 |
| CCOC(=O)C(CC(C)C)N1CC([N+](=O)[O-])=C(N(CC)Cc2ccc(Cl)nc2)N(C)C1 (racemic) | < 50 | ≥ 70 | ≥ 50 |
| CCOC(=O)CN1CC([N+](=O)[O-])=C(N(CC)Cc2ccc(Cl)nc2)N(C)C1 | ≥ 90 | 100 | 100 |
| CCN(Cc1ccc(Cl)nc1)C1=C([N+](=O)[O-])CN(C(C)c2ccccc2)CN1C (single isomer, unassigned; (+)) | ≥ 80 | 100 | 100 |
| CCN(Cc1ccc(Cl)nc1)C1=C([N+](=O)[O-])CN(Cc2ccccn2)CN1C | ≥ 70 | 100 | ≥ 80 |
| CCN(Cc1ccc(Cl)nc1)C1=C([N+](=O)[O-])CN(Cc2ccc(Cl)nc2)CN1C | ≥ 80 | 100 | 100 |
| CCN(Cc1ccc(Cl)nc1)C1=C([N+](=O)[O-])CN(Cc2ccc(OC)cc2)CN1C | – | ≥ 90 | ≥ 50 |
| CCN(Cc1ccc(Cl)nc1)C1=C([N+](=O)[O-])CN(c2ccccc2OC)CN1C | ≥ 60 | 100 | 100 |
| CCN(Cc1ccc(Cl)nc1)C1=C([N+](=O)[O-])CN(Cc2ccc(C)cc2)CN1C | ≥ 50 | 100 | ≥ 70 |
| CCN(Cc1ccc(Cl)nc1)C1=C([N+](=O)[O-])CN(C(C)c2ccc(C)cc2)CN1C (racemic) | ≥ 70 | ≥ 90 | ≥ 80 |
| CCN(Cc1ccc(Cl)nc1)/C(=C/[N+](=O)[O-])NC [NITENPYRAM] | 100 | 100 | 100 |
| CCN(Cc1ccc(Cl)nc1)C1=C([N+](=O)[O-])CN(Cc2ccccc2)CN1C | ≥ 90 | 100 | 100 |
| CCN(Cc1ccc(Cl)nc1)C1=C([N+](=O)[O-])CN(c2ccccc2)CN1C | ≥ 70 | 100 | ≥ 90 |
| CCN(Cc1ccc(Cl)nc1)C1=C([N+](=O)[O-])CN(CCc2ccccc2)CN1C | ≥ 80 | 100 | 100 |
| CCOC(=O)C(Cc1ccccc1)N1CC([N+](=O)[O-])=C(N(CC)Cc2ccc(Cl)nc2)N(C)C1 (racemic) | ≥ 60 | ≥ 80 | ≥ 70 |
| CCN(Cc1ccc(Cl)nc1)C1=C([N+](=O)[O-])CN(C2CCCCC2)CN1C | ≥ 60 | ≥ 90 | ≥ 80 |
